Assay results published in patent publication US9695155B2, “Herbicidal substituted pyrimidinyloxy benzene compounds” (E. I. DU PONT DE NEMOURS AND COMPANY, priority 2013, dated 2017).

Experiments:
[1] = system: barnyardgrass; experiment: Test B flooded paddy test; assay type: in vivo, Echinochloa crus-galli; conditions: Flood, 250 g ai/ha; 0 to 100 scale where 0 is no effect and 100 is complete control
In short: (§1)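 Greenhouse flooded-pot test: compounds dosed into 3 cm standing water over 2-leaf plants, flood held constant. Rated visually after 13–15 days on 0–100 (complete control = 100); a dash marks no test result.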

[2] = system: wheat; experiment: Test A preemergence; assay type: in vivo, Triticum aestivum; conditions: for Wheat plant response rating: 500 g ai/ha
In short: (§2)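 Compounds in non-phytotoxic solvent with surfactant applied as soil spray preemergence, or postemergence to plants 2-10 cm at one- to two-leaf stage, in loam/sand. After approximately 10 days in greenhouse, injury rated visually versus untreated controls, 0 (no effect) to 100 (complete control).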

[3] = system: rice; experiment: Test B flooded paddy test; assay type: in vivo, Oryza sativa; conditions: Flood, 250 g ai/ha; 0 to 100 scale where 0 is no effect and 100 is complete control
In short: as §1

[4] = system: Heteranthera limosa; experiment: Test B flooded paddy test; assay type: in vivo; conditions: Flood, 250 g ai/ha; 0 to 100 scale where 0 is no effect and 100 is complete control
In short: as §1

[5] = system: velvetleaf; experiment: Test A postemergence; assay type: in vivo, Abutilon theophrasti
In short: as §2

[6] = system: large (Lg) crabgrass; experiment: Test A preemergence; assay type: in vivo, Digitaria sanguinalis; conditions: for Crabgrass, Large plant response rating: 500 g ai/ha
In short: as §2

[7] = system: large (Lg) crabgrass; experiment: Test A postemergence; assay type: in vivo, Digitaria sanguinalis
In short: as §2

[8] = system: barnyardgrass; experiment: Test A preemergence; assay type: in vivo, Echinochloa crus-galli; conditions: for Barnyardgrass plant response rating: 500 g ai/ha
In short: as §2

[9] = system: corn; experiment: Test A preemergence; assay type: in vivo, Zea mays; conditions: for Corn plant response rating: 500 g ai/ha
In short: as §2

[10] = system: pigweed; experiment: Test A postemergence; assay type: in vivo, Amaranthus retroflexus
In short: as §2

[11] = system: giant foxtail; experiment: Test A preemergence; assay type: in vivo, Setaria faberii; conditions: for Foxtail, Giant plant response rating: 500 g ai/ha
In short: as §2

[12] = system: velvetleaf; experiment: Test A preemergence; assay type: in vivo, Abutilon theophrasti; conditions: for Velvetleaf plant response rating: 500 g ai/ha
In short: as §2

[13] = system: wheat; experiment: Test A postemergence; assay type: in vivo, Triticum aestivum
In short: as §2

[14] = system: sedge, umbrella; experiment: Test B flooded paddy test; assay type: in vivo, Cyperus difformis; conditions: Flood, 250 g ai/ha; 0 to 100 scale where 0 is no effect and 100 is complete control
In short: as §1

[15] = system: morningglory; experiment: Test A postemergence; assay type: in vivo, Ipomoea spp.
In short: as §2

[16] = system: pigweed; experiment: Test A preemergence; assay type: in vivo, Amaranthus retroflexus; conditions: for Pigweed plant response rating: 500 g ai/ha
In short: as §2

[17] = system: morningglory; experiment: Test A preemergence; assay type: in vivo, Ipomoea spp.; conditions: for Morningglory plant response rating: 500 g ai/ha
In short: as §2

[18] = system: giant foxtail; experiment: Test A postemergence; assay type: in vivo, Setaria faberii
In short: as §2

[19] = system: barnyardgrass; experiment: Test A postemergence; assay type: in vivo, Echinochloa crus-galli
In short: as §2

[20] = system: corn; experiment: Test A postemergence; assay type: in vivo, Zea mays
In short: as §2

[21] = 125 g ai/ha, 0 to 100 scale where 0 is no effect and 100 is complete control
[22] = 0 to 100 scale, 0 no effect, 100 complete control, approx. 10 days
[23] = 500 g ai/ha, 0 to 100 scale, 0 no effect, 100 complete control
[24] = 500 g ai/ha, 0 to 100 scale where 0 is no effect and 100 is complete control
[25] = 0 to 100 scale where 0 is no effect and 100 is complete control

C=Cc1cnn(-c2ccccc2Oc2ncc(Cl)cn2)c1 [Compound 31]
Plant response rating, Barnyardgrass [1]: 0
Plant response rating, Wheat [2, 21]: 0
Wheat plant response rating [2, 22]: 0
Plant response rating, Rice [3]: 25
Plant response rating, Ducksalad [4]: 80
Plant response rating, Velvetleaf [5, 21]: 100
Plant response rating, Velvetleaf [5, 23]: 100
Plant response rating, Crabgrass, Large [6, 21]: 50
Crabgrass, Large plant response rating [6, 22]: 90
Plant response rating, Crabgrass, Large [7, 21]: 50
Plant response rating, Crabgrass, Large [7, 23]: 60
Plant response rating, Barnyardgrass [8, 21]: 20
Barnyardgrass plant response rating [8, 22]: 50
Plant response rating, Corn [9, 21]: 0
Corn plant response rating [9, 22]: 0
Plant response rating, Pigweed [10, 21]: 40
Plant response rating, Pigweed [10, 23]: 70
Plant response rating, Foxtail, Giant [11, 21]: 20
Foxtail, Giant plant response rating [11, 22]: 90
Plant response rating, Velvetleaf [12, 21]: 50
Velvetleaf plant response rating [12, 22]: 90
Plant response rating, Wheat [13, 21]: 0
Plant response rating, Wheat [13, 23]: 0
Plant response rating, Sedge, Umbrella [14]: 30
Plant response rating, Morningglory [15, 21]: 0
Plant response rating, Morningglory [15, 23]: 30
Plant response rating, Pigweed [16, 21]: 40
Pigweed plant response rating [16, 22]: 60
Plant response rating, Morningglory [17, 21]: 0
Morningglory plant response rating [17, 22]: 0
Plant response rating, Foxtail, Giant [18, 21]: 40
Plant response rating, Foxtail, Giant [18, 23]: 50
Plant response rating, Barnyardgrass [19, 21]: 10
Plant response rating, Barnyardgrass [19, 23]: 50
Plant response rating, Corn [20, 21]: 0
Plant response rating, Corn [20, 23]: 20

N#Cc1cccc(Oc2ncc(Br)cn2)c1-n1cc(Cl)cn1 [Compound 71]
Plant response rating, Barnyardgrass [1]: 0
Plant response rating, Wheat [2, 21]: 20
Wheat plant response rating [2, 22]: 40
Plant response rating, Rice [3]: 30
Plant response rating, Ducksalad [4]: 0
Plant response rating, Velvetleaf [5, 21]: 90
Plant response rating, Velvetleaf [5, 24]: 100
Plant response rating, Crabgrass, Large [6, 21]: 100
Crabgrass, Large plant response rating [6, 22]: 100
Plant response rating, Crabgrass, Large [7, 21]: 70
Plant response rating, Crabgrass, Large [7, 23]: 100
Plant response rating, Barnyardgrass [8, 21]: 60
Barnyardgrass plant response rating [8, 22]: 100
Plant response rating, Corn [9, 21]: 30
Corn plant response rating [9, 22]: 40
Plant response rating, Pigweed [10, 21]: 100
Plant response rating, Pigweed [10, 24]: 100
Plant response rating, Foxtail, Giant [11, 21]: 100
Foxtail, Giant plant response rating [11, 22]: 100
Plant response rating, Velvetleaf [12, 21]: 70
Velvetleaf plant response rating [12, 22]: 100
Plant response rating, Wheat [13, 21]: 10
Plant response rating, Wheat [13, 24]: 40
Plant response rating, Sedge, Umbrella [14]: 70
Plant response rating, Morningglory [15, 21]: 70
Plant response rating, Morningglory [15, 24]: 90
Plant response rating, Pigweed [16, 21]: 100
Pigweed plant response rating [16, 22]: 100
Plant response rating, Morningglory [17, 21]: 90
Morningglory plant response rating [17, 22]: 90
Plant response rating, Foxtail, Giant [18, 21]: 80
Plant response rating, Foxtail, Giant [18, 24]: 90
Plant response rating, Barnyardgrass [19, 21]: 80
Plant response rating, Barnyardgrass [19, 23]: 90
Plant response rating, Corn [20, 21]: 30
Plant response rating, Corn [20, 23]: 60

COc1cnc(Oc2ccccc2-n2cccn2)nc1 [Compound 227]
Plant response rating, Barnyardgrass [1]: 0
Wheat plant response rating (0 to 100 scale) ([2]; 125 g ai/ha): 0
Wheat plant response rating [2, 25]: 0
Plant response rating, Rice [3]: 0
Plant response rating, Ducksalad [4]: 0
Velvetleaf plant response rating [5, 21]: 50
Plant response rating, Velvetleaf [5, 24]: 90
Crabgrass, Large plant response rating (0 to 100 scale) ([6]; 125 g ai/ha): 0
Crabgrass, Large plant response rating [6, 25]: 10
Crabgrass, Large plant response rating [7, 21]: 0
Plant response rating, Crabgrass, Large [7, 24]: 10
Barnyardgrass plant response rating (0 to 100 scale, 0 is no effect, 100 is complete control) ([8]; 125 g ai/ha): 0
Barnyardgrass plant response rating [8, 25]: 0
Corn plant response rating (0 to 100 scale) ([9]; 125 g ai/ha): 0
Corn plant response rating [9, 25]: 0
Pigweed plant response rating [10, 21]: 10
Plant response rating, Pigweed [10, 24]: 60
Foxtail, Giant plant response rating (0 to 100 scale) ([11]; 125 g ai/ha): 0
Foxtail, Giant plant response rating [11, 25]: 10
Velvetleaf plant response rating (0 to 100 scale) ([12]; 125 g ai/ha): 10
Velvetleaf plant response rating [12, 25]: 20
Wheat plant response rating [13, 21]: 0
Plant response rating, Wheat [13, 24]: 0
Plant response rating, Sedge, Umbrella [14]: 0
Morningglory plant response rating [15, 21]: 0
Plant response rating, Morningglory [15, 24]: 10
Pigweed plant response rating (0 to 100 scale) ([16]; 125 g ai/ha): 10
Pigweed plant response rating [16, 25]: 60
Morningglory plant response rating (0 to 100 scale) ([17]; 125 g ai/ha): 0
Morningglory plant response rating [17, 25]: 0
Foxtail, Giant plant response rating [18, 21]: 0
Plant response rating, Foxtail, Giant [18, 24]: 10
Barnyardgrass plant response rating [19, 21]: 0
Plant response rating, Barnyardgrass [19, 24]: 0
Corn plant response rating [20, 21]: 0
Plant response rating, Corn [20, 24]: 0
